Assays:
ERK1/2 = assay: phospho-ERK1/2 immunoblot (MAPK activity) in HC11 cells; type: cell-based, mouse; details: for ability of the Wnt proteins to stimulate ERK1/2 activity: C-HC11 pretreated 1 hr with inhibitor, then Wnt CM for 10 minutes
From the text: The MAPK and PI3K pathways are major signaling cascades downstream of activated ErbB receptors (Olayioye et al., 2000). Antisera specific for the active, phosphorylated forms of ERK1/2 and PKB, the major kinases on the respective pathways, were used to probe for their activity. 50 micrograms of WCL were immunoblotted essentially as described above with the exception that a phospho-ERK1/2 antibody (commercially available, New England Biolabs) or a phosphoPKB antibody was used. Membranes were stripped and reprobed for ERK1/2 (anti-p44/42 ERK, New England Biolabs).
Briefly, conditioned media (CM) from Wnt-HC11 cells prepared as described in Example 1 was tested for its effect on ErbB1 and MAPK activity, essentially as described above. Treatment of C-HC11 cells for 10 min with Wnt1- and Wnt5a-CM stimulated phospho-ERK1/2 levels 5-6-fold, whereas CM from C-HC11 cells had no effect.
To rule out the potential involvement of ErbB1 ligands in mediating the effects of Wnt-containing CM, we used secreted Frizzled-related protein-1 (sFRP-1), which binds Wnt preventing it from binding Fz (Uren et al., 2000). CM from human embryonic kidney (HEK293) cells stably expressing the sFRP1 expression vector or control HEK 293 cells was premixed 1 hr with Wnt-containing CM (1:1) before adding to C-HC11 cultures for 10 min. Simultaneous addition of CM from sFRP1-producing 293 cells with Wnt-containing CM prevented Wnt1 and Wnt5a from increasing phospho-ERK1/2 levels, showing that sFRP1 blocks Wnt signalling through Fz to ErbB1. As a control, the cells were also treated for 10 minutes with EGF in the presence of sFRP1.
To test for a role of metalloproteinases in Wnt-expressing HC11 cells, two metalloproteinase inhibitors were used, namely phenanthroline (Calbiochem), a metal ion chelator, or CGS27023A, an enzymatic inhibitor (Wang et al., 1999). Cells were treated for 1 hour with phenathroline, CGS27023A, (both at 50μM) or DMSO carrier. ErbB1 was immunoprecipitated from 500 micrograms WCL and immunoblotted with a phosphotyrosine specific antibody, essentially as described above. Membranes were stripped and reprobed for ErbB1. ERK1/2 was probed from 50 micrograms of WCL, immunoblotted with a phospho-ERK1/2 antibody, essentially as described above. Membranes were stripped and reprobed for ERK1/2.
The metalloproteinase inhibitors were next tested in the presence of Wnt-containing CM. C-HC11 cultures were pretreated 1 hr with metalloproteinase inhibitors before treatment with CM from C- or Wnt-HC11 cells for 10 minutes. Phospho-ERK1/2 levels were determined as above. Phenanthroline and CGS 27023A each blocked the ability of the Wnt proteins to stimulate ERK1/2 activity in C-HC11 cells. Similar results were obtained with HC11 cells constitutively expressing the Wnt proteins. Thus, Wnt-mediated activation of ErbB1 and ERK is dependent on a metalloproteinase activity.

cyclin D1 = assay: Cyclin D1 immunoblot in HC11 cells; type: cell-based, mouse; details: Wnt1- and Wnt5a-HC11 cells treated 6 hr
Method: Briefly, WCL was prepared from HC11, Wnt1- and Wnt5a-expressing HC11 cells and 50 μg immunoblotted essentially as described above using commercially available antibodies against cyclin D1 (NovaCastra) or cyclin D2 (SantaCruz). Both Wnt1- and Wnt5a-HC11 cells express higher levels of cyclin D1, in comparison to HC11 cells. In addition, Wnt1-HC11 cells but not C- or Wnt5a-HC11 cells express cyclin D2.
C-HC11 cells were also treated 6 hrs with CM from Wnt-HC11 cells. WCL were prepared and 50 μg was immunoblotted for Cyclin D1 or Cyclin D2. Similar to the results with the Wnt-HC11 cell lines, both Wnts (CM) stimulated Cyclin D1 expression, while only Wnt1 enhanced cyclin D2 levels.
To assess the contribution of Wnt-transactivated ErbB1 on cyclin D1 and D2 expression, C- and Wnt-HC11 cells were treated 6 hr with PKI166 or CGS27023A or EGF. […] In contrast, the ErbB1 inhibitor had no effect on cyclin D2 levels. […] Thus, cyclin D1 and cyclin D2 are differentially controlled. Both Wnt1 and Wnt5a transactivate ErbB1, which results in increased expression of cyclin D1; in contrast cyclinD2 is only elevated in Wnt1 expressing cells and this is independent of ErbB1 activity.

ErbB1 = target: T1, ErbB1 (Mus musculus, UniProt Q01279); assay: ErbB1 immunoprecipitation and phosphotyrosine immunoblot in HC11 cells; type: cell-based; details: Wnt-HC11 cells, 5 microM for 1 hr
T1 construct: endogenous in cells; host or cells: HC11 mammary cells (C-HC11, Wnt1-HC11, Wnt5a-HC11)
T1 sequence (Q01279 25-1210): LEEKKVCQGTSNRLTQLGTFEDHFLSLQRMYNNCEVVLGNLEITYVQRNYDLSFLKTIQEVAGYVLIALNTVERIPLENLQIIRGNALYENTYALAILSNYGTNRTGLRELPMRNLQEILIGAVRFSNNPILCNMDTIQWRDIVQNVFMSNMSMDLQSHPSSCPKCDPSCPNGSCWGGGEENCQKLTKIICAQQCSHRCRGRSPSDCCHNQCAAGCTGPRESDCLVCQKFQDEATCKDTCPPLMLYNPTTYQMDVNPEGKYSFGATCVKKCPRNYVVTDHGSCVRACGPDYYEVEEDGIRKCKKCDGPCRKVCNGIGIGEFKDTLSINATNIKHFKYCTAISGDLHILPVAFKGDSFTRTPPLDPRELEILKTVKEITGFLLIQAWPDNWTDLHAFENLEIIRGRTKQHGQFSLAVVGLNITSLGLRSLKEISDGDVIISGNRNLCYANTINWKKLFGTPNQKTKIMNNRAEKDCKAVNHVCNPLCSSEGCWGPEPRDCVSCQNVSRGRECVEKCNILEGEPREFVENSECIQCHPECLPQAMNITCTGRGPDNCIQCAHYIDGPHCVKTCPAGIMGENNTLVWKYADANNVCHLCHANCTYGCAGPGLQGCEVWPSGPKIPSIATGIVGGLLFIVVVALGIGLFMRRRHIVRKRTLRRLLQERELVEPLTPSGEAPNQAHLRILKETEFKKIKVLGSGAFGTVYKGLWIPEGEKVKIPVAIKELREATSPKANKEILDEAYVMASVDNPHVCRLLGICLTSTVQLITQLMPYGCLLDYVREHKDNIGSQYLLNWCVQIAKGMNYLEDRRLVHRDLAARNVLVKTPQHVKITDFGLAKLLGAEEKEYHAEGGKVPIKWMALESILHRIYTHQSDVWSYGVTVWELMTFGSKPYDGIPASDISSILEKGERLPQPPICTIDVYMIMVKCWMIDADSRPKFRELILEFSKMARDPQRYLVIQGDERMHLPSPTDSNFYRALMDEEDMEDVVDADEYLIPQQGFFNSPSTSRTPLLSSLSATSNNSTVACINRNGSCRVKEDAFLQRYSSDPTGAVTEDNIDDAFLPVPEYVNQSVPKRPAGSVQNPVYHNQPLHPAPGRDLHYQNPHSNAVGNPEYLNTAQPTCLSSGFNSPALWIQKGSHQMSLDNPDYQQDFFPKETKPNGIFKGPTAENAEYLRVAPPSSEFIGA
Method: ErbB1 is transactivated by many classes of membrane proteins (Carpenter, 1999; Gschwind et al., 2001). However, Wnt/VFz-mediated activation of ErbB1 has not been reported previously. Since ErbB1 tyrosine phosphorylation is an essential step in ErbB1 activation, we examined whether Wnt can activate ErbB1, by immunoprecipitating the receptor form Wnt/HC11 cells and performing a Westem analysis with phosphotyrosine specific antiserum. For these experiments HC11 cells were grown over night in medium without EGF. As a control for ErbB1 activation, C-HC 11 and Wnt-HC11 cells were treated for 10 minutes with 100 ng/ml EGF. An ErbB1 selective kinase inhibitor PKI166 (Traxler et al., 2001) was also used in some experiments. For this, the cells were pretreated 1 hr with 5 microM PKI 166, or left untreated, before preparing WCLs, essentially as described in Example 1.
ErbB1 was immunoprecipitated from 500 micrograms WCL and immunoblotted with a phosphotyrosine specific antibody (anti-phosphotyrosine AG10, Upstate Biotechnology) essentially as described previously (Lane et al., 2000). Membranes were stripped by placing them in 2% SDS, 62.5 mM Tris pH 6.8, 100 mM beta-mercaptoethanol at 60° C. for 30 min. Stripped membranes were reprobed for ErbB1 using a commercially available antibody (antibody 1005,Santa Cruz Biotechnology). […]

cyclin D2 = assay: Cyclin D2 immunoblot in HC11 cells; type: cell-based, mouse; details: Wnt-HC11 cells treated 6 hr
Method: Briefly, WCL was prepared from HC11, Wnt1- and Wnt5a-expressing HC11 cells and 50 μg immunoblotted essentially as described above using commercially available antibodies against cyclin D1 (NovaCastra) or cyclin D2 (SantaCruz). Both Wnt1- and Wnt5a-HC11 cells express higher levels of cyclin D1, in comparison to HC11 cells. In addition, Wnt1-HC11 cells but not C- or Wnt5a-HC11 cells express cyclin D2. C-HC11 cells were also treated 6 hrs with CM from Wnt-HC11 cells. WCL were prepared and 50 μg was immunoblotted for Cyclin D1 or Cyclin D2. Similar to the results with the Wnt-HC11 cell lines, both Wnts (CM) stimulated Cyclin D1 expression, while only Wnt1 enhanced cyclin D2 levels. To assess the contribution of Wnt-transactivated ErbB1 on cyclin D1 and D2 expression, C- and Wnt-HC11 cells were treated 6 hr with PKI166 or CGS27023A or EGF. […] In contrast, the ErbB1 inhibitor had no effect on cyclin D2 levels. […] Thus, cyclin D1 and cyclin D2 are differentially controlled. Both Wnt1 and Wnt5a transactivate ErbB1, which results in increased expression of cyclin D1; in contrast cyclinD2 is only elevated in Wnt1 expressing cells and this is independent of ErbB1 activity.

Compound	ability of the Wnt proteins to stimulate ERK1/2 activity (ERK1/2)	cyclin D1 level (cyclin D1)	decrease of ErbB1's phosphotyrosine level (ErbB1)	ability of Wnt-containing CM to stimulate phospho-ERK1/2 levels (ERK1/2; C-HC11 cells pre-treated for 1 hour with inhibitor)	EGF induction of MAPK activity (ERK1/2; C-HC11 cells, pretreatment with inhibitor)	constitutive level of phospho-ERK1/2 (ERK1/2; Wnt-expressing HC11 cells)	cyclin D2 levels (cyclin D2)
COc1ccc(S(=O)(=O)N(Cc2cccnc2)[C@@H](C(=O)NO)C(C)C)cc1 [CGS27023A]	blocked	decreased expression	–	–	–	–	–
C[C@@H](Nc1ncnc2[nH]c(-c3ccc(O)cc3)cc12)c1ccccc1 [PKI166]	–	reduced cyclin D1 to the control level	approximately 50%	blocked	prevented	reduced the constitutive level of phospho-ERK1/2 to basal	no effect
c1cnc2c(c1)ccc1cccnc12 [Phenanthroline, phenanthroline]	blocked	–	–	–	–	–	–

From patent publication US20060019320A1, “Wnt mediated erbb signalling, compositions and uses related thereto” (priority 2002, published 2006)
